In this experiment the test system is Northern house mosquitoes (Culex pipiens). In words: Short-term spatial repellency, static air repellency chamber. It is filed as in vivo. The settings on record: for pest or weed control at 0.5 %: Culex pipiens; for Short-term repellency at low concentration, in words: filter paper treated with 0.1%. As to the method:
Northern house mosquitoes (Culex pipiens), a primary carrier of West Nile virus in eastern North America, were obtained from an established colony in the Medical Entomology Laboratory in the Department of Entomology at Iowa State University of Science and Technology, Ames Iowa. Mosquito rearing was performed by established protocols that are maintained by the Medical Entomology Laboratory. Repellency bioassays were performed with adult female mosquitoes that emerged 5-7 days previously. […] Mosquitoes, prior to testing, were held at 27° C., 80% relative humidity, and on a 16:8 hr light:dark photoperiod.
Repellency bioassays were performed using a static air repellency chamber, which has been described in various publications by the Pesticide Toxicology Laboratory at Iowa State University of Science and Technology, Ames, Iowa Briefly, a 9-cm×60-cm glass tube was used to monitor the distribution of mosquitoes at 15 min, 30 min, 60 min, 90 min, 120 min, and 150 min after introducing mosquitoes into the static air repellency chamber. […] One end of the spatial chamber contained a treated filter paper, whereas the other (untreated) end of the spatial chamber was not treated with compound. Controls contained filter papers treated with acetone, the solvent used to make the 0.5% solutions. Each end of the repellency chamber was secured with a 100-mm Petri dish using celluloid tape. After securing the petri dishes with corresponding treated or untreated filter papers to the spatial chamber, mosquitoes were anesthetized with carbon dioxide, and approximately 20 female mosquitoes were placed into each repellency chamber for one replicate. The opening of the spatial repellency chamber was secured with celluloid tape to prevent their escape. Chambers were oriented in opposite directions from the previous replicate to account for any directional effect. Four replicates were performed for data analysis for both the control and treatment groups.
Data for spatial repellency, the percentage repellency, is reported at each of the respective time points in the figures and tables mentioned below. The percentage spatial repellency is the examination of the distribution of mosquitoes and is calculated using the following equation: […]

[1] abbreviates: 0.25 h, filter paper, 1 mL of 0.5% solution in acetone, air-dried 15 min, 15 min after introduction, read-out: Short-term Percentage repellency 15 min.
[2] abbreviates: 1.5 h, filter paper, 1 mL of 0.5% solution in acetone, air-dried 15 min, 90 min, read-out: Short-term Percentage repellency 90 min.
Where [3] appears, read: 2.5 h, filter paper, 1 mL of 0.5% solution in acetone, air-dried 15 min, 150 min, read-out: Short-term Percentage repellency 150 min.

Results on 34 compounds are retold here after patent US11485701B2, “Insect repellent compounds and compositions, and methods thereof” (Iowa State University Research Foundation, Inc., priority 2016, dated 2022).

Counter-ions that a name gives are not always drawn. Like-named read-outs stand apart in the source and are kept apart here.

On to `CC(C)=CCC/C(C)=C\COC(=O)C1(C)CCC1` [Compound 2108, neryl 1-methylcyclobutanecarboxylate], for which the pest or weed control at 0.5 % runs as follows: under setting [1], 60%; under setting [2], 90%; under setting [3], 85%.

Turning to `CC1CCC(C(C)C)C(OC(=O)Cc2cccs2)C1` (centres unmarked) [Compound 2245, menthyl thiophen-2-ylacetate], the pest or weed control at 0.5 % reads like this: under setting [1], -35%; under setting [2], 35%; under setting [3], 57.5%.

As to `CC(C)=CCCC(C)CCOC(=O)CC#N` (centres unmarked) [Compound 2198, citronellyl cyanoacetate], the pest or weed control at 0.5 % is 37.5% under setting [1], 32.5% under setting [2] and 40% under setting [3].

As to `O=C(OC/C=C/c1ccccc1)C1CC1` [Compound 2038, cinnamyl cyclopropanecarboxylate], the pest or weed control at 0.5 % reads like this: under setting [1], 40%; under setting [2], 57.5%; under setting [3], 60%.

As for `Cc1cc(OC(=O)C(C)C)c(C(C)C)cc1Cl` [Compound 1144B, chlorothymyl isobutyrate], the pest or weed control at 0.5 % worked out at 40% under setting [1], 77.5% under setting [2] and 87.5% under setting [3].

Turning to `CC(C)CC(=O)OCC1=CCC2CC1C2(C)C` (centres unmarked) [Compound 2258, myrteryl isovalerate], the pest or weed control at 0.5 % came to 35% under setting [1], 85% under setting [2] and 87.5% under setting [3].

On to `CC(C)=CCCC(C)CCOC(=O)C=C(C)C` (centres unmarked) [Compound 2105, citronellyl 3,3-dimethylacrylate], for which the pest or weed control at 0.5 % amounted to 45% under setting [1], 75% under setting [2] and 65% under setting [3].

In the case of `CC(C)CC(=O)OC1CC(C)CCC1C(C)C` (centres unmarked) [Compound 2256, menthyl isovalerate], the pest or weed control at 0.5 % runs as follows: under setting [1], 37.5%; under setting [2], 42.5%; under setting [3], 27.5%.

For `CC(=O)OCCOC(=O)C=Cc1ccccc1` [Compound 1105, 2-acetoxyethyl cinnamate], the pest or weed control at 0.5 % by setting is: under setting [1], 30%; under setting [2], 15%; under setting [3], 10%.

In the case of `C=CC(C)(CCC=C(C)C)OC(=O)CC(C)C` (centres unmarked) [Compound 2152, linalyl isovalerate], the pest or weed control at 0.5 % reads like this: under setting [1], 15%; under setting [2], 82.5%; under setting [3], 92.5%.

For the compound `CC(C)=CCC/C(C)=C\COC(=O)CC(C)C` [Compound 2255B, neryl isovalerate], the pest or weed control at 0.5 % is, setting by setting: under setting [1], 7.5%; under setting [2], 75%; under setting [3], 80%.

As for `CC(C)=CCCC(C)CCOC(=O)c1cccs1` (centres unmarked) [Compound 2180, Citronellyl thiophene-2-carboxylate], the pest or weed control at 0.5 % reads like this: under setting [1], 0%; under setting [2], 37.5%; under setting [3], 45%.

On to `CC1=CCC(C(C)(C)OC(=O)CC(C)C)CC1` (stereo not drawn) [Compound 2257, alpha-terpinyl isovalerate], for which the pest or weed control at 0.5 % runs as follows: under setting [1], 10%; under setting [2], 55%; under setting [3], 65%.

Turning to `C=CCc1ccc(OC(=O)CC(C)C)c(OC)c1` [Compound 1076A, eugenyl isovalerate], the pest or weed control at 0.5 % under setting [1] came out at 17.5%.

On to `Cc1cc(OC(=O)C2CC2)c(C(C)C)cc1[N+](=O)[O-]` [Compound 1066B, 4-nitrothymyl cyclopropanecarboxylate], for which the pest or weed control at 0.5 % under setting [1] is 37.5%, the pest or weed control at 0.5 % under setting [2] was determined as 57.5% and the pest or weed control at 0.5 % under setting [3] was found to be 70%.

As for `CC(C)=CCCC(C)CC(=O)OC1COC1` (centres unmarked) [Compound 3071, 3-oxetanyl citronellate], the pest or weed control at 0.5 % under setting [1] is 2.5%, the pest or weed control at 0.5 % under setting [2] was determined as 37.5% and the pest or weed control at 0.5 % under setting [3] is 40%.

Turning to `Cc1ccc(C(C)C)c(OC(=O)C(F)F)c1` [Compound 2194, thymyl difluoroacetate], the pest or weed control at 0.5 % (0.25 h, read-out: Short-term Percentage repellency 15 min) is 20%.

Turning to `C=C(C)CCOC(=O)CC(C)CCC=C(C)C` (centres unmarked) [Compound 2168, isoprenyl citronellate], the pest or weed control at 0.5 % under setting [1] worked out at 27.5%, the pest or weed control at 0.5 % under setting [2] was 62.5% and the pest or weed control at 0.5 % under setting [3] amounted to 72.5%.

With `CC(C)=CCCC(C)CC(=O)OCC1(C)COC1` (centres unmarked) [Compound 3070, (3-methyloxetan-3-yl) methyl citronellate], the pest or weed control at 0.5 % runs as follows: under setting [1], 15%; under setting [2], 42.5%; under setting [3], 32.5%.

`CC(C)=CCCC(C)CC(=O)OCC1CCC1` (centres unmarked) [Compound 2026, cyclobutylmethyl citronellate]: the pest or weed control at 0.5 % under setting [1] was found to be 25%, the pest or weed control at 0.5 % under setting [2] was 37.5% and the pest or weed control at 0.5 % under setting [3] stood at 25%.

Consider `CC(C)=CCCC(C)CCOC(=O)CC(F)(F)F` (centres unmarked) [Compound 2235, citronellyl 3,3,3-trifluoropropanoate], for which the pest or weed control at 0.5 % under setting [1] was found to be 12.5%, the pest or weed control at 0.5 % under setting [2] is 62.5% and the pest or weed control at 0.5 % under setting [3] is 77.5%.

For the compound `CC(C)=CCCC(C)CCOC=O` (centres unmarked) [Compound 1089, citronellyl formate], the pest or weed control at 0.5 % is, setting by setting: under setting [1], 77.5%; under setting [2], 92.5%; under setting [3], 90%.

For `CC(C)=CCCC(C)CCOC(=O)C(C)(C)F` (centres unmarked) [Compound 2208, citronellyl 2-fluoroisobutyrate], the pest or weed control at 0.5 % runs as follows: under setting [1], 37.5%; under setting [2], 75%; under setting [3], 77.5%.

For the compound `CC(C)=CCCC(C)CCOC(=O)C1CCC1` (centres unmarked) [Citronellyl cyclobutanecarboxylate], the “Short-term percentage repellency 150 min at 1/5 the concentration” value (0.1% (1/5 of 0.5%), 150 minutes, FIG. 6) is listed as “approximately 90%”. Besides, the “Short-term repellency at low concentration, in words” value (FIG. 6) is on record as “significant levels of repellency”.

With `CC(C)=CCCC(C)CCOC(=O)CC1CC1` (centres unmarked) [Compound 2229, citronellyl cyclopropylacetate], the “Short-term repellency at low concentration, in words” value (FIG. 6) was “significant levels of repellency”.

For `CC(C)=CCCC(C)CC(=O)OCCO` (centres unmarked) [Compound 1052, 2-hydroxyethyl citronellate], the pest or weed control at 0.5 % under setting [1] is 77.5%, the pest or weed control at 0.5 % under setting [2] came to 92.5% and the pest or weed control at 0.5 % under setting [3] is 82.5%.

On to `C#CC(C)(C)OC(=O)CC(C)CCC=C(C)C` (centres unmarked) [Compound 2171, 1,1-dimethylpropargyl citronellate], for which the pest or weed control at 0.5 % is, setting by setting: under setting [1], 37.5%; under setting [2], 67.5%; under setting [3], 62.5%.

Take `CCCCCCC(=O)OCCC(C)CCC=C(C)C` (centres unmarked) [Compound 2203, citronellyl hexanecarboxylate]: the pest or weed control at 0.5 % worked out at 0% under setting [1], 10% under setting [2] and 20% under setting [3].

As for `CC(C)=CCCC(C)CCOC(=O)c1ccccc1` (centres unmarked) [Compound 2189, citronellyl benzoate], the pest or weed control at 0.5 % was 6.5% under setting [1], 17.5% under setting [2] and 27.5% under setting [3].

With `CC(C)=CCCC(C)CCOC(=O)C1CC(F)(F)C1` (centres unmarked) [Compound 3069, citronellyl 3,3-difluorocyclobutanecarboxylate], the pest or weed control at 0.5 % was 2.5% under setting [1], 20% under setting [2] and 27.5% under setting [3].

As to `CC(C)=CCC/C(C)=C/COC(=O)CC(C)C` [Compound 2255A, geranyl isovalerate], the pest or weed control at 0.5 % under setting [1] was 35%, the pest or weed control at 0.5 % under setting [2] turned out to be 60% and the pest or weed control at 0.5 % under setting [3] worked out at 52.5%.

Turning to `Cc1cc(OC(=O)C2CC2)c(C(C)C)cc1Br` [Compound 1075B, 4-bromothymyl cyclopropanecarboxylate], the pest or weed control at 0.5 % reads like this: under setting [1], 47.5%; under setting [2], 32.5%; under setting [3], 30%.

For `Cc1ccc(C(C)C)cc1OC(=O)CC(C)C` [Compound 1079C, carvacryl isovalerate], the pest or weed control at 0.5 % under setting [1] is -10%, the pest or weed control at 0.5 % under setting [2] was determined as 87.5% and the pest or weed control at 0.5 % under setting [3] amounted to 95%.

As for `CC(C)=CCCC(C)CCOC(=O)C(C)(F)F` (centres unmarked) [Compound 2232, citronellyl 2,2-difluoropropanoate], the pest or weed control at 0.5 % amounted to 50% under setting [1], 82.5% under setting [2] and 82.5% under setting [3].
